Assay results: publication PMC8963254, “Effects of Lysine N-ζ-Methylation in Ultrashort Tetrabasic Lipopeptides (UTBLPs) on the Potentiation of Rifampicin, Novobiocin, and Niclosamide in Gram-Negative Bacteria” (Antibiotics, 2022)
Like-named read-outs stand apart in the source and are kept apart here.

Assays:
P. aeruginosa PAO1 = type: cell-based, Pseudomonas aeruginosa; conditions: PAO1, 18 h
Method: (§1) The in vitro antibacterial activity of the UTBLPs was assessed against wild-type and clinically isolated bacterial strains. To obtain the MIC of the compounds, the microbroth dilution susceptibility assay was performed according to the Clinical and Laboratory Standards Institute (CLSI, Wayne, PA, USA) guidelines and as previously described. Briefly, the compounds at varying concentrations were incubated with bacterial inoculum (5 × 10^5 CFU/mL final concentration) at 37 °C for 18 h. Growth in the form of turbidity was confirmed using an EMax Plus microplate reader (Molecular Devices, San Jose, CA, USA) at 590 nm.

E. coli 94393 = experiment: microbe, parasite or virus in culture; type: cell-based, Escherichia coli; conditions: 94393, 18 h
Method in brief: (§2)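 MIC was determined by broth microdilution following CLSI guidelines. Serially varied compound concentrations were incubated with bacterial inoculum at 5 × 10^5 CFU/mL (final) for 18 h at 37 °C. Growth was scored as turbidity by absorbance at 590 nm.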

E. coli 94474 = experiment: microbe, parasite or virus in culture; type: cell-based, Escherichia coli; conditions: 94474, 18 h
Method in brief: as §2

MRSA ATCC 33592 = type: cell-based, Staphylococcus aureus
Method: (§3) The synergy of the UTBLPs with various antibiotics was assessed using checkerboard assay as previously described. Briefly, the combination of antibiotic and OMP at varying concentrations were incubated with bacterial inoculum (5 × 10^5 CFU/mL final concentration) at 37 °C for 18 h. Growth in the form of turbidity was confirmed using an EMax Plus microplate reader (Molecular Devices, Union City, CA, USA) at 590 nm. Fractional inhibitory concentration index (FICI) was used to evaluate the interaction between the antibiotic and the OMP. FICI is the sum of the FIC of the antibiotic and the FIC of the OMP. The FIC value is calculated by dividing the MIC of the agents in combination by the MIC of the agent alone. FICI ≤ 0.5 is synergistic, 0.5 < x ≤ 4 is additive, and >4 is antagonistic.

S. aureus ATCC 29213 = type: cell-based, Staphylococcus aureus
Method: as §3

E. coli ATCC 25922 [1] = type: cell-based, Escherichia coli; conditions: for MICUTBLP: UTBLP alone
Method in brief: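 Checkerboard synergy assay: antibiotic and OMP combined at varying concentrations with 5 × 10^5 CFU/mL inoculum (final), 37 °C, 18 h; growth read as turbidity at 590 nm. FICI = sum of FICs (MIC in combination / MIC alone); ≤0.5 synergistic, 0.5–4 additive, >4 antagonistic.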

A. baumannii ATCC 17978 [2] = type: cell-based, Acinetobacter baumannii; conditions: ATCC 17978, 18 h
Method: as §1

A. baumannii AB92247 = experiment: microbe, parasite or virus in culture; type: cell-based, Acinetobacter baumannii; conditions: AB92247, 18 h
Method in brief: as §2

A. baumannii AB027 [3] = experiment: microbe, parasite or virus in culture; type: cell-based, Acinetobacter baumannii; conditions: AB027, 18 h
Method in brief: as §2

A. baumannii AB027 [4] = type: cell-based, Acinetobacter baumannii; conditions: for MICUTBLP: UTBLP alone
Method: as §3

A. baumannii 92247 = type: cell-based, Acinetobacter baumannii; conditions: for MICUTBLP: UTBLP alone
Method: as §3

A. baumannii ATCC 17978 [5] = type: cell-based, Acinetobacter baumannii; conditions: for MICUTBLP: UTBLP alone
Method: as §3

E. cloacae 118564 = experiment: microbe, parasite or virus in culture; type: cell-based, Enterobacter cloacae; conditions: 118564, 18 h
Method: as §1

E. coli ATCC 25922 [6] = type: cell-based, Escherichia coli; conditions: ATCC 25922, 18 h
Method: as §1

MRSE 61589 = type: cell-based, Staphylococcus epidermidis
Method: as §3

MSSE 81388 = type: cell-based, Staphylococcus epidermidis
Method: as §3

[7] = UTBLP alone, plate with chloramphenicol
[8] = UTBLP in combination with chloramphenicol
[9] = chloramphenicol in combination with the UTBLP
[10] = UTBLP in combination with niclosamide
[11] = UTBLP in combination with novobiocin
[12] = UTBLP in combination with rifampicin
[13] = niclosamide in combination with the UTBLP
[14] = novobiocin in combination with the UTBLP
[15] = rifampicin in combination with the UTBLP

Compound: CCCCCCCC(=O)N[C@@H](CCCCNC)C(=O)NCCCN(CCCNC(=O)[C@H](CCCCNC)NC(=O)CCCCCCC)CC(=O)N[C@@H](CCCCNC)C(N)=O [UTBLP 2]
- MIC (P. aeruginosa PAO1): >128 µg/mL
- MIC (E. coli 94393): > 128 µg/mL
- MIC (E. coli 94474): > 128 µg/mL
- Interpretation (MRSA ATCC 33592; UTBLP + chloramphenicol): Additive (0.5 < x ≤ 4 is additive)
- MICUTBLP (MRSA ATCC 33592; [7]): > 128 µg/mL
- MICUTBLP [MICcombo] (MRSA ATCC 33592; [8]): 0.25 µg/mL
- MICchloramphenicol [MICcombo] (MRSA ATCC 33592; [9]): 64 µg/mL
- MICUTBLP (S. aureus ATCC 29213; [7]): 128 µg/mL
- MICUTBLP [MICcombo] (S. aureus ATCC 29213; [8]): 0.25 µg/mL
- MICchloramphenicol [MICcombo] (S. aureus ATCC 29213; [9]): 16 µg/mL
- Interpretation (E. coli ATCC 25922 [1]; UTBLP + chloramphenicol): Additive (0.5 < x ≤ 4 is additive)
- Interpretation (E. coli ATCC 25922 [1]; UTBLP + niclosamide): Synergy (FICI ≤ 0.5 is synergistic)
- Interpretation (E. coli ATCC 25922 [1]; UTBLP + novobiocin): Synergy (FICI ≤ 0.5 is synergistic)
- Interpretation (E. coli ATCC 25922 [1]; UTBLP + rifampicin): Synergy (FICI ≤ 0.5 is synergistic)
- MICUTBLP (E. coli ATCC 25922 [1]; plate with chloramphenicol): > 128 µg/mL
- MICUTBLP (E. coli ATCC 25922 [1]; plate with niclosamide): > 128 µg/mL
- MICUTBLP (E. coli ATCC 25922 [1]; plate with novobiocin): > 128 µg/mL
- MICUTBLP (E. coli ATCC 25922 [1]; plate with rifampicin): > 128 µg/mL
- MICUTBLP [MICcombo] (E. coli ATCC 25922 [1]; [8]): 0.25 µg/mL
- MICUTBLP [MICcombo] (E. coli ATCC 25922 [1]; [10]): 4 µg/mL
- MICUTBLP [MICcombo] (E. coli ATCC 25922 [1]; [11]): 8 µg/mL
- MICUTBLP [MICcombo] (E. coli ATCC 25922 [1]; [12]): 16 µg/mL
- MICantibiotic [MICcombo] (E. coli ATCC 25922 [1]; [9]): 2 µg/mL
- MICantibiotic [MICcombo] (E. coli ATCC 25922 [1]; [13]): 2 µg/mL
- MICantibiotic [MICcombo] (E. coli ATCC 25922 [1]; [14]): 1 µg/mL
- MICantibiotic [MICcombo] (E. coli ATCC 25922 [1]; [15]): 0.125 µg/mL
- MIC (A. baumannii ATCC 17978 [2]): >128 µg/mL
- MIC (A. baumannii AB92247): > 128 µg/mL
- MIC (A. baumannii AB027 [3]): > 128 µg/mL
- Interpretation (A. baumannii AB027 [4]; UTBLP + novobiocin): Synergy (FICI ≤ 0.5 is synergistic)
- Interpretation (A. baumannii AB027 [4]; UTBLP + rifampicin): Synergy (FICI ≤ 0.5 is synergistic)
- MICUTBLP (A. baumannii AB027 [4]; plate with novobiocin): > 128 µg/mL
- MICUTBLP (A. baumannii AB027 [4]; plate with rifampicin): > 128 µg/mL
- MICUTBLP [MICcombo] (A. baumannii AB027 [4]; [11]): 16 µg/mL
- MICUTBLP [MICcombo] (A. baumannii AB027 [4]; [12]): 16 µg/mL
- MICantibiotic [MICcombo] (A. baumannii AB027 [4]; [14]): 0.25 µg/mL
- MICantibiotic [MICcombo] (A. baumannii AB027 [4]; [15]): 0.063 µg/mL
- Interpretation (A. baumannii 92247; UTBLP + novobiocin): Synergy (FICI ≤ 0.5 is synergistic)
- Interpretation (A. baumannii 92247; UTBLP + rifampicin): Synergy (FICI ≤ 0.5 is synergistic)
- MICUTBLP (A. baumannii 92247; plate with novobiocin): > 128 µg/mL
- MICUTBLP (A. baumannii 92247; plate with rifampicin): > 128 µg/mL
- MICUTBLP [MICcombo] (A. baumannii 92247; [11]): 16 µg/mL
- MICUTBLP [MICcombo] (A. baumannii 92247; [12]): 16 µg/mL
- MICantibiotic [MICcombo] (A. baumannii 92247; [14]): 0.25 µg/mL
- MICantibiotic [MICcombo] (A. baumannii 92247; [15]): 0.063 µg/mL
- Interpretation (A. baumannii ATCC 17978 [5]; UTBLP + chloramphenicol): Additive (0.5 < x ≤ 4 is additive)
- Interpretation (A. baumannii ATCC 17978 [5]; UTBLP + niclosamide): Synergy (FICI ≤ 0.5 is synergistic)
- Interpretation (A. baumannii ATCC 17978 [5]; UTBLP + novobiocin): Synergy (FICI ≤ 0.5 is synergistic)
- Interpretation (A. baumannii ATCC 17978 [5]; UTBLP + rifampicin): Synergy (FICI ≤ 0.5 is synergistic)
- MICUTBLP (A. baumannii ATCC 17978 [5]; plate with chloramphenicol): > 128 µg/mL
- MICUTBLP (A. baumannii ATCC 17978 [5]; plate with niclosamide): > 128 µg/mL
- MICUTBLP (A. baumannii ATCC 17978 [5]; plate with novobiocin): > 128 µg/mL
- MICUTBLP (A. baumannii ATCC 17978 [5]; plate with rifampicin): > 128 µg/mL
- MICUTBLP [MICcombo] (A. baumannii ATCC 17978 [5]; [8]): 0.25 µg/mL
- MICUTBLP [MICcombo] (A. baumannii ATCC 17978 [5]; [10]): 8 µg/mL
- MICUTBLP [MICcombo] (A. baumannii ATCC 17978 [5]; [11]): 8 µg/mL
- MICUTBLP [MICcombo] (A. baumannii ATCC 17978 [5]; [12]): 16 µg/mL
- MICantibiotic [MICcombo] (A. baumannii ATCC 17978 [5]; [9]): 64 µg/mL
- MICantibiotic [MICcombo] (A. baumannii ATCC 17978 [5]; [13]): 2 µg/mL
- MICantibiotic [MICcombo] (A. baumannii ATCC 17978 [5]; [14]): 0.5 µg/mL
- MICantibiotic [MICcombo] (A. baumannii ATCC 17978 [5]; [15]): 0.031 µg/mL
- MIC (E. cloacae 118564): > 128 µg/mL
- MIC (E. coli ATCC 25922 [6]): >128 µg/mL
- Interpretation (MRSE 61589; UTBLP + chloramphenicol): Additive (0.5 < x ≤ 4 is additive)
- MICUTBLP (MRSE 61589; [7]): 64 µg/mL
- MICUTBLP [MICcombo] (MRSE 61589; [8]): 0.25 µg/mL
- MICchloramphenicol [MICcombo] (MRSE 61589; [9]): 16 µg/mL
- Interpretation (MSSE 81388; UTBLP + chloramphenicol): Additive (0.5 < x ≤ 4 is additive)
- MICUTBLP (MSSE 81388; [7]): 64 µg/mL
- MICUTBLP [MICcombo] (MSSE 81388; [8]): 0.25 µg/mL
- MICchloramphenicol [MICcombo] (MSSE 81388; [9]): 8 µg/mL
